Data on 32 molecules can be found in US20120252853A1, “Positive allosteric modulators of nicotinic acetylcholine receptor” (H. Lundbeck A/S, priority 2011, published 2012).

This test deals with human α7 receptor (Homo sapiens, UniProt P36544). The test is described as follows: α7 NNR flux assay (FDSS Ca assay). Format: cell-based. As to conditions: positive allosteric modulation; rat GH4C1 cell line stably expressing human α7; acetylcholine 20 μM; % modulation relative to PNU-120596 set to 100%. As for the experimental part:
In this version of the assay, the human α7 receptor is stably expressed in the rat GH4C1 cell line. The assay was used to identify positive allosteric modulators (PAMs) of the α7 receptor. Activation of the channel was measured by loading cells with the calcium-sensitive fluorescent dye Calcium-4 (Assay kit from Molecular Devices), and then measuring real-time changes in fluorescence upon treatment with test compounds.
The cell line ChanClone GH4C1-nAChRalpha7 from Genionics was seeded from frozen stock in 384-well plates in culture media 2-3 days before experiment to form an approximately 80% confluent layer on the day of experiment.
The cell culture were split into “22.5 cm×22.5 cm”-plates with approximately 100×10^3 cells/cm^2. After four days incubation in a humidified incubator at 37° C. and 5% CO2, it had grown to an 80-90% confluent layer, and the cells were harvested.
Two or three days before the experiment the cells were seeded in 384 well plates from Greiner bio-one (781946, CELLCOAT, Poly-D-Lysine, black, μClear).
The cells were seeded in 384 well plates with 30 μL/well (30000 cells/well) while stirring the cell suspension or otherwise preventing the cells from precipitating. The plates were incubated at room temperature for 30-45 minutes. The plates were placed in incubator for two days (37° C. and 5% CO2).
The loading buffer was 5% v/v Calcium-4 Kit and 2.5 mM Probenecid in assay buffer.
Culture media were removed from the cell plates and 20 μL loading buffer was added in each well. The cell plates were placed in trays and incubated 90 minutes in the incubator (37° C.). Thereafter the plates were incubated 30 minutes at room temperature, still protected from light. Now the cell plates were ready to run in the Functional Drug Screening System (FDSS) The assay buffer was HBSS with 20 mM HEPES, pH 7.4 and 3 mM CaCl2.
200 nL 10 mM compound solution in DMSO was diluted in 50 μL assay buffer. The final test concentrations in the cell plates were 20-10-5-2.5-1.25-0.625-0.312-0.156-0.078-0.039 μM. Assay buffer and 3 μM PNU-120596 were used for control:
The agonist acetylcholine was added to a final concentration of 20 μM (˜EC100). In the FDSS7000 the Ex480-Em540 was measured with 1 second intervals. The baseline was made of 5 frames before addition of test compounds, and 95 frames more were made before addition of acetylcholine. The measurement stopped 30 frames after the 2nd addition. Raw data for each well were collected as “the maximum fluorescence count” in the interval 100-131 seconds and as “the average fluorescence count” in the interval 96-100 seconds. The positive allosteric modulation in the 2nd addition was the enhancement of agonist response with test compound compared to agonist alone.
Results were calculated as % modulation of test compound compared to the reference PNU-120596 set to 100%.

Where only a bound is given, the exact number is not on record here.

human α7 receptor, sequence (P36544 23-502): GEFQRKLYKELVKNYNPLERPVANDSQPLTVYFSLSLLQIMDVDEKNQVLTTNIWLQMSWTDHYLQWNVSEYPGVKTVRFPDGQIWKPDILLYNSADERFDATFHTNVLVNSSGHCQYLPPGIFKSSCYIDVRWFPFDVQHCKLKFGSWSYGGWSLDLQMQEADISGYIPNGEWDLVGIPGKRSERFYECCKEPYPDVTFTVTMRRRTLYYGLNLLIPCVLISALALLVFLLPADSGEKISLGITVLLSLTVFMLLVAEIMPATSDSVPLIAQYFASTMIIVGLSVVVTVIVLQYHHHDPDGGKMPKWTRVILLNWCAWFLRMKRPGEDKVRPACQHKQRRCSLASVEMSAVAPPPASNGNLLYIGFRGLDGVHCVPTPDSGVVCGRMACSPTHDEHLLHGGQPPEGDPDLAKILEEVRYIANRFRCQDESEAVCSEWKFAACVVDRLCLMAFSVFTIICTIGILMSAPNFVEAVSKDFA

As to `Cc1cc2cc(CNC(=O)c3cnn(C4COC4)c3)ccc2[nH]1` [Compound 49, N-[(2-methyl-1H-indol-5-yl)methyl]-1-(oxetan-3-yl)pyrazole-4-carboxamide], the concentration for a half-maximal effect (EC50) (usually the concentration at which the effect is half-maximal) amounted to 6.5 µM.
Molecule `Cc1cc2cc(CNC(=O)c3cnc(C)o3)ccc2[nH]1` [Compound 50, 2-methyl-N-[(2-methyl-1H-indol-5-yl)methyl]oxazole-5-carboxamide] registered a half-maximal effective concentration (EC50) of 8.5 µM. This EC50 and that of the molecule before are within 1.5-fold of each other.
Molecule `Cc1cc2cc(CNC(=O)c3cnn(C4CCOC4)c3)ccc2[nH]1` (centres unmarked) [Compound 51, N-[(2-methyl-1H-indol-5-yl)methyl]-1-tetrahydrofuran-3-yl-pyrazole-4-carboxamide] gave an EC50 of 6.1 µM.
`Cc1cc2cc([C@@H](C)NC(=O)c3cnn(C4COC4)c3)ccc2[nH]1` [Compound 52, N-[(1R)-1-(2-methyl-1H-indol-5-yl)ethyl]-1-(oxetan-3-yl)pyrazole-4-carboxamide]: the EC50 was 5.3 µM.
Turning to `Cc1cc(C(=O)N[C@H](C)c2ccc3[nH]c(C)cc3c2F)on1` [Compound 53, N-[(1R)-1-(4-fluoro-2-methyl-1H-indol-5-yl)ethyl]-3-methyl-isoxazole-5-carboxamide], the concentration giving a half-maximal response (EC50) worked out at 6 µM. This EC50 and that of the molecule before are within 1.5-fold of each other.
The molecule `Cc1cc(C(=O)N[C@@H](C)c2ccc3[nH]c(C)cc3c2F)on1` [Compound 54, N-[(1S)-1-(4-fluoro-2-methyl-1H-indol-5-yl)ethyl]-3-methyl-isoxazole-5-carboxamide] came in with a 50% effective concentration (EC50) of over 20 µM.
Consider `Cc1cc(C(=O)NCc2ccc3[nH]c(C)cc3c2)n(C)n1` [Compound 55, 2,5-dimethyl-N-[(2-methyl-1H-indol-5-yl)methyl]pyrazole-3-carboxamide], for which a half-maximal response (EC50) required 7.3 µM. This counts as single-digit micromolar.
On to `Cc1cc2cc(CNC(=O)c3onc(C)c3Cl)ccc2[nH]1` [Compound 56, 4-chloro-3-methyl-N-[(2-methyl-1H-indol-5-yl)methyl]isoxazole-5-carboxamide], for which a half-maximal response (EC50) required 4.3 µM.
In the case of `Cc1cc2cc(CNC(=O)c3cccn3C)ccc2[nH]1` [Compound 57, 1-methyl-N-[(2-methyl-1H-indol-5-yl)methyl]pyrrole-2-carboxamide], the EC50 amounted to 3.87 µM.
For the molecule `Cc1cc(C(=O)NCc2ccc3[nH]ccc3c2)on1` [Compound 58, N-(1H-indol-5-ylmethyl)-3-methyl-isoxazole-5-carboxamide], the midpoint of the response, the EC50, lay at 8.57 µM.
With `Cc1c(C(=O)NCc2ccc3[nH]ccc3c2)sc(=O)n1C` [Compound 59, N-(1H-indol-5-ylmethyl)-3,4-dimethyl-2-oxo-thiazole-5-carboxamide], the EC50 is 7.7 µM.
In the case of `Cc1cc2cc(CNC(=O)c3sc(=O)n(C)c3C)ccc2[nH]1` [Compound 60, 3,4-dimethyl-N-[(2-methyl-1H-indol-5-yl)methyl]-2-oxo-thiazole-5-carboxamide], a half-maximal response (EC50) required 4.1 µM.
`Cc1cc(C(=O)N[C@@H](C)c2ccc3[nH]c(C)cc3c2)on1` [Compound 62, 3-methyl-N-[(1S)-1-(2-methyl-1H-indol-5-yl)ethyl]isoxazole-5-carboxamide] came in with an EC50 of 9.1 µM.
`Cc1cc(C(=O)NCc2ccc3c(ccn3C(F)F)c2)on1` [Compound 63, N-[[1-(difluoromethyl)indol-5-yl]methyl]-3-methyl-isoxazole-5-carboxamide] gave an EC50 of 5.8 µM.
With `Cc1cc(C(=O)NCc2ccc3c(c2)cc(C)n3C(F)F)on1` [Compound 64] the figure was 9.3 µM.
In turn, `O=C(NCc1ccc2c(ccn2C(F)F)c1)c1cnn(CC(F)(F)F)c1` [Compound 68, N-[[1-(difluoromethyl)indol-5-yl]methyl]-1-(2,2,2-trifluoroethyl)pyrazole-4-carboxamide] had a 50% effective concentration (EC50) of 2.1 µM.
In turn, `Cc1cc2cc(CNC(=O)c3cnn(CC(F)(F)F)c3)ccc2n1C(F)F` [Compound 69, N-[[1-(difluoromethyl)-2-methyl-indol-5-yl]methyl]-1-(2,2,2-trifluoroethyl)pyrazole-4-carboxamide] returned a concentration for a half-maximal effect (EC50) of 4.2 µM.
Consider `Cc1cc2cc(CNC(=O)c3cc(CC(F)(F)F)no3)ccc2n1C(F)F` [Compound 70, N-[[1-(difluoromethyl)-2-methyl-indol-5-yl]methyl]-3-(2,2,2-trifluoroethyl)isoxazole-5-carboxamide], for which the response was half-maximal at 9.4 µM (EC50).
`Cc1cc2cc(CNC(=O)c3cnn(C(C)C)c3)ccc2[nH]1` [Compound 71, 1-isopropyl-N-[(2-methyl-1H-indol-5-yl)methyl]pyrazole-4-carboxamide] displayed an EC50 of 2.9 µM.
As to `O=C(NCc1ccc2c(ccn2C(F)F)c1)c1cc(CC(F)(F)F)no1` [Compound 72, N-[[1-(difluoromethyl)indol-5-yl]methyl]-3-(2,2,2-trifluoroethyl)isoxazole-5-carboxamide], the response was half-maximal at 7.6 µM (EC50).
For `[2H]C([2H])([2H])c1cc2cc(CNC(=O)c3cc(C)no3)ccc2[nH]1` [Compound 73, 3-methyl-N-[[2-(trideuteriomethyl)-1H-indol-5-yl]methyl]isoxazole-5-carboxamide], a half-maximal effect (EC50) was put at 2.8 µM.
For `Cc1cc2cc(CNC(=O)c3nnc(C)o3)ccc2[nH]1` [Compound 74, 5-methyl-N-[(2-methyl-1H-indol-5-yl)methyl]-1,3,4-oxadiazole-2-carboxamide], the EC50 was determined as 6 µM.
Turning to `CCc1cc(C(=O)NCc2ccc3[nH]c(C)cc3c2)no1` [Compound 75, 5-ethyl-N-[(2-methyl-1H-indol-5-yl)methyl]isoxazole-3-carboxamide], the EC50 was determined as 2.1 µM.
Next, `Cc1cc2cc(CNC(=O)c3coc(C)n3)ccc2[nH]1` [Compound 76, 2-methyl-N-[(2-methyl-1H-indol-5-yl)methyl]oxazole-4-carboxamide]: 8.2 µM; `Cc1cc2cc(CNC(=O)c3noc(C)n3)ccc2[nH]1` [Compound 77, 5-methyl-N-[(2-methyl-1H-indol-5-yl)methyl]-1,2,4-oxadiazole-3-carboxamide]: 10.5 µM; `[2H]C([2H])([2H])c1cc2cc(CNC(=O)c3cc(CC(F)(F)F)no3)ccc2[nH]1` [Compound 78, N-[[2-(trideuteriomethyl)-1H-indol-5-yl]methyl]-3-(2,2,2-trifluoroethyl)isoxazole-5-carboxamide]: 0.61 µM.
In turn, `Cc1cc2cc(CNC(=O)c3cc(CC(F)(F)F)no3)ccc2[nH]1` [Compound 79] displayed an EC50 of 0.56 µM. The EC50 values of the last two molecules are within 1.5-fold of each other.
Turning to `Cc1cc(C(=O)NCc2ccc3c(ccn3C(F)(F)F)c2)on1` [Compound 80, 3-methyl-N-[[1-(trifluoromethyl)indol-5-yl]methyl]isoxazole-5-carboxamide], a half-maximal effect (EC50) was put at 5.7 µM. Against the preceding molecule, the EC50 is about 10-fold higher.
In the case of `O=C(NCc1ccc2c(ccn2C(F)(F)F)c1)c1cnn(CC(F)(F)F)c1` [Compound 81, 1-(2,2,2-trifluoroethyl)-N-[[1-(trifluoromethyl)indol-5-yl]methyl]pyrazole-4-carboxamide], the EC50 was determined as 6 µM.
Turning to `[2H]C([2H])([2H])c1cc2cc(CNC(=O)c3cnn(CC(F)(F)F)c3)ccc2[nH]1` [Compound 82], the midpoint of the response, the EC50, lay at 0.98 µM.
In turn, `Cc1cc2cc(CNC(=O)c3cnn(CC(F)(F)F)c3)ccc2n1C(F)(F)F` [Compound 83, N-[[2-methyl-1-(trifluoromethyl)indol-5-yl]methyl]-1-(2,2,2-trifluromethyl)pyrazole-4-carboxamide] registered an EC50 of 11 µM.
`Cc1cc(C(=O)NCc2ccc3c(c2)cc(C)n3C(F)(F)F)on1` [Compound 84, 3-methyl-N-[[2-methyl-1-(trifluoromethyl)indol-5-yl]methyl]isoxazole-5-carboxamide]: it took 6 µM to reach a half-maximal effect (EC50).
